Data from patent publication US4654373A, “Pharmaceutical formulations containing coenzyme Q10 suitable for topic administration” (Italfarmaco S.A., priority 1982, dated 1987).

Columns and labels:
Wistar rats = test: Acute toxicity by topical cutaneous route in rats; type: in vivo, Wistar rat; conditions: 5 mg up to 20 mg per cm^2 of depilated (intact or abraded) skin, immediate and eight days after treatment
Method: To assess the toxicity of the product administered by the topical cutaneous route, two groups of forty Wistar rats of both sexes in the same number, carefully depilated on the back, were used.
To a group of these rats, the depilated skin was also abraded. On the cutis so prepared after two days the compositions of the invention containing increasing amounts of Coenzyme Q10 in the ratio of 5 mg up to 20 mg for each square centimeter of depilated skin, were spread for each group of ten rats.

New Zealand rabbits = test: Acute toxicity by topical cutaneous route in rabbits; type: in vivo, New Zealand rabbit; conditions: 5 to 20 mg per cm^2 of depilated (intact or abraded) back, immediately and after 8 days
Method: Similar experiences were carried out also on a group of 8 New Zealand rabbits of both sexes, having the back depilated. The cutis of 4 of these animals was also abraded.
Two days after the depilation, the compositions of the invention, corresponding to doses of Coenzyme Q10 ranging from 5 to 20 mg per square centimeter of area of the depilated back, were spread on the cutis of the animals so prepared.

male Wistar rats = test: Chronic toxicity, topical, 60 days, rats; conditions: 50 mg/kg/die, daily for 60 days
Method: (§1) These tests were carried out by administering locally on the skin of two groups of 30 male Wistar rats and of 6 male New Zealand rabbits with the skin epilated, the skin of one group being epilated and abraded, a pharmaceutical composition for a total amount of 50 mg/kg/die of Coenzyme Q10.
(§2) The administration went on daily for 60 consecutive days.
(§3) Before the start of the treatment and at the end all the animals were subjected to a series of controls and examinations regarding the ponderal increase, red-cells and white cells count, haemoglobin concentration in the blood, glycemia, azotemia, transaminases and blood total proteins. The urinary elimination was also tested. At the end of treatment all the animals were killed and accurate anatomopathological and histopathological examinations were performed on each animal with particular regard to the zones of treated skin.

male New Zealand rabbits = test: Chronic toxicity, topical, 60 days, rabbits; conditions: 50 mg/kg/die, daily for 60 days
Method: as §1, §2, §3

pregnant Wistar rats = test: Theratogenesis test, topical; conditions: topical on epilated and abraded skin, 50 mg/kg/die, seventh to fifteenth day of pregnancy
Method: In order to evaluate if the administration by the topical route of Coenzyme Q10 could interfere on the normal ebryonal or phaetal development, a pharmaceutical composition of the invention corresponding to an amount of Coenzyme Q10 of 50 mg/kg/die was spread on the epilated and abraded skin of ten pregnant Wistar rats.
The administration was carried out from the seventh to the fifteenth day of pregnancy.
The main internal organs were also subjected to observation.

[1] = Cutaneous absorption of Coenzyme Q10 in the rat; type: in vivo, male Wistar rat; conditions: topical, 5 mg/kg/cm^2 of skin
Method: In order to evaluate the cutaneous absorption of Coenzyme Q10 after its application on the skin a group of male Wistar rats of the average weight of 280 g was used. The animals were epilated on the back and a composition corresponding to a dose of Coenzyme Q10 of 5 mg/kg/cm^2 of skin was applied on the epilated back.
Samples of skin were then removed both from treated and untreated animals at intervals of 1, 3, 6 and 24 hours from treatment. The skin, together with the removed subcutaneous tissue, was homogenized and kept at -20° C. till the moment of analysis.
Samples of 5 g each of tissue were saponified in the presence of pyrogallole.
The fraction containing Coenzyme Q10 and other neutral fats was extracted with hydrocarbon solvents and purified chromatographically on column.
The spectrophotometric measurement was performed according to the method described by Linn B. O., Page A. C., Wong E. L., Gale, P. H., Shunk C. H., Folkers K. [J. Am. Chem. Soc., 81, 4007 (1959)].

[2] = Cutaneous absorption in volunteers; type: in vivo, human (health volunteers); conditions: human, skin, topical or ocular, 1 mg/cm^2, corneous layer removed, read-out: mean percent absorption
Method: For these tests the method described by Tauber and al. [Arzneimittel Forschung, 26, N7b, 1492 (1976)].
On 4 health volunteers, areas of about 30 cm^2 of skin whose corneous layer had been removed, were spread with a composition corresponding to 1 mg/cm^2 of Coenzyme Q10.
Immediately after the application and after 24 hours from the application on the skin, the composition not absorbed was removed by cotton-wool and the cotton-wool used for the removal was extracted with chloroform/ethanol.
After saponification in presence of pyrogallole the fraction containing Coenzyme Q10 and other neutral fact was extracted with hydrocarbon solvents and purified chromatographically on column.
The spectrophotometric measure was carried out according to the method described by Linn and al. [J. Am. Chem. Soc., 81, 4007 (1959)].

[3] = Distribution after oral administration (HPLC); type: in vivo, rat; conditions: oral 50 mg/kg; for concentration at 0.5 h / concentration at 1 h / concentration at 6 h: rat; for concentration at 0.5 h: 30 min.; for concentration at 1 h: 60 min.
Method: Rats were treated with 50 mg/kg of Coenzyme Q10 by oral route and the concentration of the active principle was determined by using the HPLC method in several organs after 30 min., 60 min. and 6 hours.

[4] = Distribution after parenteral (intramuscular) administration (HPLC); type: in vivo, rat; conditions: intramuscular 20 mg/kg; for concentration at 0.5 h / concentration at 1 h / concentration at 6 h: rat, im; for concentration at 0.5 h: 30 min.; for concentration at 1 h: 60 min.
Method: Rats were treated with 20 mg/kg of Coenzyme Q10 by intramuscular injection and the concentration of the active compound was determined by HPLC after 30 min., 60 min. and 6 hours.

[5] = Cutaneous concentration after topical administration (HPLC); type: in vivo, rat; conditions: topical 2 mg/cm^2, vegetal oils as solvents and excipients
Method: Rats were cutaneously treated with 2 mg/cm^2 of skin of Coenzyme Q10 and the concentration was measured by the HPLC method. The results are listed in Table 3 for two different vehicles.

holes in rabbits' ears = test: Tissular regeneration and healing of holes in rabbits' ears; type: in vivo, New Zealand rabbit; conditions: topical composition, 5 mg/cc, versus not treated rabbits
dental caries = test: Dental caries in hamster fed by cariogenic diet; type: in vivo; conditions: 25 mg/kg on the dental gingival region
experimental burns = test: Experimental burn in the rat; type: in vivo, male Wistar rat
[6] = tested on: carrageenin oedema in the rat paw; test: Carrageenin oedema test in rats; type: in vivo, male rat; conditions: topical, both formulations
Method: To male rats weighing 220 g, fasted for 24 hours, 0.1 ml of 1% carrageenin suspension was injected into the plantar surface of a hind paw.
The control group, consisting of 25 animals, was administered with the only carrageenin, two other groups, consisting each of 25 animals, were topically administered with Coenzyme Q10 in form of two different formulations, in peanut oil and olive oil respectively, before the carrageenin injection. The results were expressed by means of a plethysmograph, which measured the size of the oedema 4 hours after the carrageenin injection.

[7] = tested on: dithranol (anthralin) induced inflammatory reaction; test: Test of dithranol induced cutaneous inflammation; type: in vivo, male Guinea pig; conditions: topical 2 mg/cm^2 cutis, both in peanut and soybean oil, 48 hours
Method: Male Guinea pigs, weighing 330 g, were epilated at the back and, 24 hours after that, 20 mg of dithranol (anthralin) was intradermically injected into symmetric areas of the back.
Coenzyme Q10 dissolved in peanut and soybean oil was spread on the backs of the animals under test, at the dosage of 2 mg/cm^2 cutis, whereas the control group of animals was subjected to no treatment.
The treated area was covered with Nescofilm and bound up with Micropore.
48 Hours after the administration of the inflammatory agent, the size of the induced inflammatory area was evaluated.

[8] = cited from earlier work
[9] = in excipients compatible with parenteral administration; cited from earlier work
[10] = oral route; cited from earlier work
[11] = heart, read-out: Mean tissutal concentration
[12] = kidney, read-out: Mean tissutal concentration
[13] = liver, read-out: Mean tissutal concentration
[14] = plasma, read-out: Mean plasmatic concentration
[15] = oral 50-100 mg/dosage (100-200 mg pro die)

## COC1=C(OC)C(=O)C(CC=C(C)CCC=C(C)CCC=C(C)CCC=C(C)CCC=C(C)CCC=C(C)CCC=C(C)CCC=C(C)CCC=C(C)CCC=C(C)C)=C(C)C1=O [Coenzyme Q10, 2,3-dimethoxy-5-methyl-6-decaprenyl-benzoquinone]
Wistar rats
  mortality, toxic effect or intolerance: did not show the appearance of any mortality cases, toxic effect or intolerance
New Zealand rabbits
  mortality or clear toxicity: neither immediately after the administration nor after 8 days, mortality cases or clear toxicity were noticed
Male Wistar rats
  biological parameters versus untreated controls: did not show, in comparison with the untreated control animals, any significative difference in the different biological parameters considered
  histological examination of the skin: did not show any pathological change
Male New Zealand rabbits
  biological parameters versus untreated controls: did not show, in comparison with the untreated control animals, any significative difference in the different biological parameters considered
  histological examination of the skin: did not show any pathological change
Pregnant Wistar rats
  alteration or malformation of phoetuses: no alteration or malformation was noticed
[1]
  time of highest concentrations in cutaneous tissue: from the third to the sixth hour after the administration
[2]
  Fa at 24 h: 18.5 ± 6.2%
[3]
  cutaneous concentration (in words): no appreciable appearance of cutaneous concentration
  heart concentration change (in words): substantial changes occur at the heart level
  plasmatic concentration change (in words): negligeable
[3]; [11]
  concentration at 0.5 h: 7100 ng/g
  concentration at 1 h: 12300 ng/g
  concentration at 6 h: 14700 ng/g
[3]; [12]
  concentration at 0.5 h: 6500 ng/g
  concentration at 1 h: 10100 ng/g
  concentration at 6 h: 15600 ng/g
[3]; [13]
  concentration at 0.5 h: 4100 ng/g
  concentration at 1 h: 7100 ng/g
  concentration at 6 h: 9800 ng/g
[3]; [14]
  concentration at 0.5 h: 170 ng/mL
  concentration at 1 h: 190 ng/mL
  concentration at 6 h: 2700 ng/mL
[4]
  cutaneous concentration (in words): no concentration in the cutis is present at any time
[4]; [11]
  concentration at 0.5 h: 10500 ng/g
  concentration at 1 h: 14300 ng/g
  concentration at 6 h: 16200 ng/g
[4]; [12]
  concentration at 0.5 h: 9500 ng/g
  concentration at 1 h: 11500 ng/g
  concentration at 6 h: 10200 ng/g
[4]; [13]
  concentration at 0.5 h: 11700 ng/g
  concentration at 1 h: 12600 ng/g
  concentration at 6 h: 14400 ng/g
[4]; [14]
  concentration at 0.5 h: 270 ng/mL
  concentration at 1 h: 940 ng/mL
  concentration at 6 h: 800 ng/mL
[5]
  concentration at the cutis level (in words): A good increase
Holes in rabbits' ears
  tissular regeneration and healing processes: much faster than in the not treated rabbits
Dental caries
  treated animals in which onset of dental caries is prevented: more than 50%
Experimental burns; preventive topical application, 1-2 mg/cm^2 of skin
  seriousness of the lesions (in words): decreased in fact the seriousness of the lesions
Experimental burns; topical route
  protective effect on experimental burn (in words): protective effect
Experimental burns; treated daily, 1-2 mg/cm^2 of skin, 4 consecutive days preceding burn induction
  reduction of the seriousness of the burn (Blue Evans): more than 50%
Experimental burns; treated only once half an hour before burn induction
  seriousness of the burn versus control rats (Blue Evans): not significantly different
[6]
  carrageenin oedema inhibition (in words): partially inhibited
[7]
  decrease of inflammatory areas with respect to non-treated animals: 50%
[8]; [15]
  clinical results (in words): satisfactory clinical results
  side-effects (in words): increases, sometimes intolerably, the side-effects of the drug
[8]; oral administration of high doses
  change in Coenzyme Q10 in peripheral tissues (in words): no changes in Coenzyme Q10 are detectable
[9]
  solubility (in words): very low solubility
[10]
  LD50: higher than 4 g/kg
